Laboratory results taken from US20250326749A1, “COMPOUNDS, COMPOSITIONS, AND METHODS OF USING THEREOF” (Sionna Therapeutics Inc., priority 2022, published 2025).

Biological target: T1, ΔF508-CFTR (Homo sapiens, UniProt P13569, DEL508-508)
T1 construct: expressed in transfected cells; host or cells: CFSMEo- (human CF submucosal gland epithelial cells, ΔF508/Q2X), transiently transfected by nucleofection
Assay: ΔF508-CFTR-HRP trafficking assay (cell surface expression of ΔF508-CFTR)
Assay type: cell-based
Settings: CFSMEo- cells transiently transfected with ΔF508-CFTR-HRP; test agent 3 μM, 48 h; HRP chemiluminescence
Method in brief: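 Surface-expressed ΔF508-CFTR measured via extracellular HRP tag: cell-impermeable chemiluminescent substrate, 5 min, signal normalized to 0.3% DMSO vehicle.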

T1 sequence (P13569 with tags, fused parts or gaps DEL508-508): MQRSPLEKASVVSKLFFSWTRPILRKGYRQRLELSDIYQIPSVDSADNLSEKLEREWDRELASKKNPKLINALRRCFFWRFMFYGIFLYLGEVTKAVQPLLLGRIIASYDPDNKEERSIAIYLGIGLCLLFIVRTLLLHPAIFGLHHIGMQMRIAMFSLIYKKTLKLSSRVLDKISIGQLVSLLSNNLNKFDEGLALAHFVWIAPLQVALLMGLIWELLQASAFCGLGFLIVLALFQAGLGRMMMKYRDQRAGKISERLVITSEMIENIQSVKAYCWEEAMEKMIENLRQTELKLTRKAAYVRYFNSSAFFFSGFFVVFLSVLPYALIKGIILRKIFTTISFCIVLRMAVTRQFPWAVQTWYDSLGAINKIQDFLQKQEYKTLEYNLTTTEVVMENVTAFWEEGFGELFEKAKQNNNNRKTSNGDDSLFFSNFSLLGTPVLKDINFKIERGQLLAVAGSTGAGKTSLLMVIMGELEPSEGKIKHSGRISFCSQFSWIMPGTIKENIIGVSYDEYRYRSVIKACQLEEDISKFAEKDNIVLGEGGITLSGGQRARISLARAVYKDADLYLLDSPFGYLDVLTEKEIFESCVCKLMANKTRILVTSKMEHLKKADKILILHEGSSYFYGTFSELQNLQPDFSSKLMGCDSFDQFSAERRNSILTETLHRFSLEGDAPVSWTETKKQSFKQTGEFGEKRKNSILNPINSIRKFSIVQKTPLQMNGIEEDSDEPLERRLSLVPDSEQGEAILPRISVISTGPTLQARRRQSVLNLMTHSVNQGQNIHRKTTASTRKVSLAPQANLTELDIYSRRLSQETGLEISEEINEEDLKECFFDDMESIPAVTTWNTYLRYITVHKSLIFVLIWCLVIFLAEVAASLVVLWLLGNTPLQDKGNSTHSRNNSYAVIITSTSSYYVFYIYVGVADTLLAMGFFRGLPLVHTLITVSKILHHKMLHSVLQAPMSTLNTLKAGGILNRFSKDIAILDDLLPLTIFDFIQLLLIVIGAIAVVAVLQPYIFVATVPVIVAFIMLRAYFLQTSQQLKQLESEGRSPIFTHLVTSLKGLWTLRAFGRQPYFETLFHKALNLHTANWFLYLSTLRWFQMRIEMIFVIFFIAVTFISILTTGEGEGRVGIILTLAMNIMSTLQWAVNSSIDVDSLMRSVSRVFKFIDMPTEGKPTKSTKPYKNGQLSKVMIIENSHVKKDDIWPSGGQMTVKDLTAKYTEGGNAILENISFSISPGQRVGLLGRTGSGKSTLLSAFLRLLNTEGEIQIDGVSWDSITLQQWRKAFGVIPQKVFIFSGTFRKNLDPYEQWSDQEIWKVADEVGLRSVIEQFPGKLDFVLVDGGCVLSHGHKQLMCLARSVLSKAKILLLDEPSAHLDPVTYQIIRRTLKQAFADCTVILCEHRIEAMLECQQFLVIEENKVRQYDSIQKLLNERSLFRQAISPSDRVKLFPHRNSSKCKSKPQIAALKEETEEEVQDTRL

C[C@H](Oc1cc(-n2nc(C(F)(F)F)c3c2N(Cc2ccc(C(=O)O)cc2)CCC3)ccn1)c1ccc2c(c1)OC(F)(F)O2 [Example 8, 4-[[1-[2-[(1S)-1-(2,2-difluoro-1,3-benzodioxol-5-yl)ethoxy]-4-pyridyl]-3-(trifluoromethyl)-5,6-dihydro-4H-pyrazolo[3,4-b]pyridine-7-yl]methyl]benzoic acid]
RLUs: ΔF508-CFTR-HRP trafficking data normalized to the vehicle treated control (0.3% DMSO): B (RLU 3.5 μM-5.0 μM)

C[C@H](Oc1cncc(-n2nc(C(F)(F)F)c3c2N(CC24CCC(C(=O)O)(CC2)CC4)CCC3)c1)c1ccc2c(c1)OC(F)(F)O2 (single isomer, unassigned) [Example 14]
RLUs: ΔF508-CFTR-HRP trafficking data normalized to the vehicle treated control (0.3% DMSO): A (RLU 5.0 μM-10 μM)

C[C@H](Oc1cc(-n2nc(C(F)(F)F)c3c2[C@H](OC24CC(C(=O)O)(C2)C4)CCC3)ccn1)c1ccc2c(c1)OC(F)(F)O2 [Example 52, 3-[[(7R)-1-[2-[(1S)-1-(2,2-difluoro-1,3-benzodioxol-5-yl)ethoxy]-4-pyridyl]-3-(trifluoromethyl)-4,5,6,7-tetrahydroindazol-7-yl]oxy]bicyclo[1.1.1]pentane-1-carboxylic acid]
RLUs: ΔF508-CFTR-HRP trafficking data normalized to the vehicle treated control (0.3% DMSO): C (RLU 0.0 μM-3.5 μM)

O=C(O)c1ccc(OC2CCCc3c(C(F)(F)F)nn(-c4cccc(OCc5ccc6c(c5)OC(F)(F)O6)c4)c32)cc1 (stereo not drawn) [Example 20, 4-[[1-[3-[(2,2-difluoro-1,3-benzodioxol-5-yl)methoxy]phenyl]-3-(trifluoromethyl)-4,5,6,7-tetrahydroindazol-7-yl]oxy]benzoic acid]
RLUs: ΔF508-CFTR-HRP trafficking data normalized to the vehicle treated control (0.3% DMSO): B (RLU 3.5 μM-5.0 μM)

C[C@H](Oc1cccc(-n2nc(C(F)(F)F)c3c2C(Oc2ccc(C(=O)O)cc2)CCC3)c1)c1cc2c(cn1)OC(F)(F)O2 (stereo partly drawn) [Example 31]
RLUs: ΔF508-CFTR-HRP trafficking data normalized to the vehicle treated control (0.3% DMSO): C (RLU 0.0 μM-3.5 μM)

C[C@H](Nc1cc(-n2nc(C(F)(F)F)c3c2[C@H](OC24CC(c5nc(=O)o[nH]5)(C2)C4)CCC3)ccc1F)c1ccc2c(c1)OC(F)(F)O2 (single isomer, unassigned) [102 (P2)]
RLUs: ΔF508-CFTR-HRP trafficking data normalized to the vehicle treated control (0.3% DMSO): B (RLU 3.5 μM-5.0 μM)

C[C@H](Oc1cc(-n2nc(C(F)(F)F)c3c2[C@@H](O[C@H]2CC[C@H](C(=O)O)CC2)CCC3)cnc1F)c1ccc2c(c1)OC(F)(F)O2 (single isomer, unassigned) [79 (P1)]
RLUs: ΔF508-CFTR-HRP trafficking data normalized to the vehicle treated control (0.3% DMSO): B (RLU 3.5 μM-5.0 μM)

C[C@H](Oc1cccc(-n2nc(C(F)(F)F)c3c2[C@@H](O[C@H]2C[C@H](C(=O)O)C2)CCC3)n1)c1cc2c(cc1F)OC(F)(F)O2 (single isomer, unassigned) [83 (P1)]
RLUs: ΔF508-CFTR-HRP trafficking data normalized to the vehicle treated control (0.3% DMSO): B (RLU 3.5 μM-5.0 μM)

C[C@H](Oc1cc(-n2nc(C(F)(F)F)c3c2[C@@H](Nc2ccc(C(=O)O)cc2)CCC3)ccn1)c1ccc2c(c1)OC(F)(F)O2 (single isomer, unassigned) [Example 109]
RLUs: ΔF508-CFTR-HRP trafficking data normalized to the vehicle treated control (0.3% DMSO): A (RLU 5.0 μM-10 μM)

CC(c1ccc2c(c1)OC(F)(F)O2)[S+]([O-])c1cccc(-n2nc(C(F)(F)F)c3c2C(Oc2ccc(C(=O)O)cc2)CCC3)c1 (stereo not drawn) [Example 117, 4-[[1-[3-[1-(2,2-difluoro-1,3-benzodioxol-5-yl)ethylsulfinyl]phenyl]-3-(trifluoromethyl)-4,5,6,7-tetrahydroindazol-7-yl]oxy]benzoic acid]
RLUs: ΔF508-CFTR-HRP trafficking data normalized to the vehicle treated control (0.3% DMSO): C (RLU 0.0 μM-3.5 μM)

C[C@H](Nc1nc(-n2nc(C(F)(F)F)c3c2[C@@H](Oc2ccc(C(=O)O)cc2)CCC3)ccc1F)c1ccc2c(c1)OC(F)(F)O2 (single isomer, unassigned) [Example 92]
RLUs: ΔF508-CFTR-HRP trafficking data normalized to the vehicle treated control (0.3% DMSO): B (RLU 3.5 μM-5.0 μM)

C[C@H](Oc1cccc(-n2nc(C(F)(F)F)c3c2C(Oc2ccc(C(=O)O)cc2)CCC3)c1)c1cc2c(cc1F)OC(F)(F)O2 (stereo partly drawn) [Example 33, 4-[[1-[3-[(1S)-1-(2,2,6-trifluoro-1,3-benzodioxol-5-yl)ethoxy]phenyl]-3-(trifluoromethyl)-4,5,6,7-tetrahydroindazol-7-yl]oxy]benzoic acid]
RLUs: ΔF508-CFTR-HRP trafficking data normalized to the vehicle treated control (0.3% DMSO): B (RLU 3.5 μM-5.0 μM)

C[C@H](Oc1cncc(-n2nc(C(F)(F)F)c3c2[C@H](OC24CC(C(=O)O)(C2)C4)CCC3)c1)c1cc2c(cc1F)OC(F)(F)O2 (single isomer, unassigned) [74 (P2)]
RLUs: ΔF508-CFTR-HRP trafficking data normalized to the vehicle treated control (0.3% DMSO): A (RLU 5.0 μM-10 μM)

CC(Oc1cccc(-n2nc(C(F)(F)F)c3c2C(Oc2ccc(C(=O)O)cc2)CCC3)c1)c1ccc2c(c1)OC(F)(F)O2 (stereo not drawn) [Example 19, 4-[[1-[3-[1-(2,2-difluoro-1,3-benzodioxol-5-yl)ethoxy]phenyl]-3-(trifluoromethyl)-4,5,6,7-tetrahydroindazol-7-yl]oxy]benzoic acid]
RLUs: ΔF508-CFTR-HRP trafficking data normalized to the vehicle treated control (0.3% DMSO): B (RLU 3.5 μM-5.0 μM)

C[C@H](Oc1cccc(-n2nc(C(F)(F)F)c3c2N(C(=O)N2CCC(C(=O)O)CC2)CCC3)c1)c1ccc2c(c1)OC(F)(F)O2 [Example 18, 1-[1-[3-[(1S)-1-(2,2-difluoro-1,3-benzodioxol-5-yl)ethoxy]phenyl]-3-(trifluoromethyl)-5,6-dihydro-4H-pyrazolo[3,4-b]pyridine-7-carbonyl]piperidine-4-carboxylic acid]
RLUs: ΔF508-CFTR-HRP trafficking data normalized to the vehicle treated control (0.3% DMSO): A (RLU 5.0 μM-10 μM)

C[C@H](Oc1cc(-n2nc(C(F)(F)F)c3c2[C@@H](OC24CC(C(=O)O)(C2)C4)CCC3)cnc1F)c1cc2c(cc1F)OC(F)(F)O2 (single isomer, unassigned) [75 (P1)]
RLUs: ΔF508-CFTR-HRP trafficking data normalized to the vehicle treated control (0.3% DMSO): C (RLU 0.0 μM-3.5 μM)

C[C@@H](Oc1cc(-n2nc(C(F)(F)F)c3c2C(O[C@H]2CC[C@H](C(=O)O)CC2)CCC3)ccn1)c1cc2c(cn1)OC(F)(F)O2 (single isomer, unassigned) [Example 47]
RLUs: ΔF508-CFTR-HRP trafficking data normalized to the vehicle treated control (0.3% DMSO): B (RLU 3.5 μM-5.0 μM)

C[C@H](Oc1cc(-n2nc(C(F)(F)F)c3c2[C@H](CN2CCC(C(=O)O)CC2)CCC3)ccn1)c1ccc2c(c1)OC(F)(F)O2 (single isomer, unassigned) [125 (P2)]
RLUs: ΔF508-CFTR-HRP trafficking data normalized to the vehicle treated control (0.3% DMSO): A (RLU 5.0 μM-10 μM)

C[C@@H](Oc1cc(-n2nc(C(F)(F)F)c3c2C(Oc2ccc(C(=O)O)cc2)CCC3)ccn1)c1ccc2c(c1)OC(F)(F)O2 (stereo partly drawn) [Example 21, 4-[[1-[2-[(1R)-1-(2,2-difluoro-1,3-benzodioxol-5-yl)ethoxy]-4-pyridyl]-3-(trifluoromethyl)-4,5,6,7-tetrahydroindazol-7-yl]oxy]benzoic acid]
RLUs: ΔF508-CFTR-HRP trafficking data normalized to the vehicle treated control (0.3% DMSO): A (RLU 5.0 μM-10 μM)

C[C@H](Oc1cc(-n2nc(C(F)(F)F)c3c2[C@H](NC(=O)C24CC(C(=O)O)(C2)C4)CCC3)ccn1)c1ccc2c(c1)OC(F)(F)O2 (single isomer, unassigned) [Example 113]
RLUs: ΔF508-CFTR-HRP trafficking data normalized to the vehicle treated control (0.3% DMSO): C (RLU 0.0 μM-3.5 μM)

C[C@H](Oc1cc(-n2nc(C(F)(F)F)c3c2[C@H](OC24CC(C(=O)O)(C2)C4)CCC3)cnn1)c1ccc2c(c1)OC(F)(F)O2 (single isomer, unassigned) [Example 63]
RLUs: ΔF508-CFTR-HRP trafficking data normalized to the vehicle treated control (0.3% DMSO): B (RLU 3.5 μM-5.0 μM)

C[C@H](Nc1cc(-n2nc(C(F)(F)F)c3c2[C@@H](Oc2ccc(C(=O)O)cc2)CCC3)ccn1)c1ccc2c(c1)OC(F)(F)O2 (single isomer, unassigned) [Example 87]
RLUs: ΔF508-CFTR-HRP trafficking data normalized to the vehicle treated control (0.3% DMSO): A (RLU 5.0 μM-10 μM)

C[C@H](Oc1cc(-n2nc(C(F)(F)F)c3c2[C@@H](O[C@H]2CC[C@H](C(=O)O)CC2)CCC3)cnn1)c1ccc2c(c1)OC(F)(F)O2 (single isomer, unassigned) [Example 55]
RLUs: ΔF508-CFTR-HRP trafficking data normalized to the vehicle treated control (0.3% DMSO): C (RLU 0.0 μM-3.5 μM)

C[C@H](Oc1cccc(-n2nc(C(F)(F)F)c3c2[C@@H](Oc2ccc(C(=O)O)cc2)CCC3)n1)c1ccc2c(c1)OC(F)(F)O2 (single isomer, unassigned) [Example 36c]
RLUs: ΔF508-CFTR-HRP trafficking data normalized to the vehicle treated control (0.3% DMSO): B (RLU 3.5 μM-5.0 μM)

C[C@@H](Oc1cc(-n2nc(C(F)(F)F)c3c2N(CC24CC(C(=O)O)(C2)C4)CCC3)cnn1)c1ccc2c(c1)OC(F)(F)O2 (single isomer, unassigned) [Example 5]
RLUs: ΔF508-CFTR-HRP trafficking data normalized to the vehicle treated control (0.3% DMSO): A (RLU 5.0 μM-10 μM)

C[C@H](Oc1cc(-n2nc(C#N)c3c2[C@@H](OC24CC(C(=O)O)(C2)C4)CCC3)ccc1F)c1ccc2c(c1)OC(F)(F)O2 (single isomer, unassigned) [105 (P1)]
RLUs: ΔF508-CFTR-HRP trafficking data normalized to the vehicle treated control (0.3% DMSO): B (RLU 3.5 μM-5.0 μM)

C[C@H](Oc1cc(-n2nc(C(F)(F)F)c3c2[C@H](OC24CC(c5nc(=O)o[nH]5)(C2)C4)CCC3)ccc1F)c1cc2c(cc1F)OC(F)(F)O2 (single isomer, unassigned) [86 (P2)]
RLUs: ΔF508-CFTR-HRP trafficking data normalized to the vehicle treated control (0.3% DMSO): C (RLU 0.0 μM-3.5 μM)

C[C@H](Nc1cc(-n2nc(C#N)c3c2[C@H](OC24CC(C(=O)O)(C2)C4)CCC3)ccc1F)c1ccc2c(c1)OC(F)(F)O2 (single isomer, unassigned) [106 (P2)]
RLUs: ΔF508-CFTR-HRP trafficking data normalized to the vehicle treated control (0.3% DMSO): C (RLU 0.0 μM-3.5 μM)

C[C@H](Oc1cc(-n2nc(C(F)(F)F)c3c2[C@@H](OC24CC(C(=O)O)(C2)C4)CCC3)cnn1)c1ccc2c(c1)OC(F)(F)O2 (single isomer, unassigned) [Example 62]
RLUs: ΔF508-CFTR-HRP trafficking data normalized to the vehicle treated control (0.3% DMSO): C (RLU 0.0 μM-3.5 μM)

CC(Oc1cccc(-n2nc(C(F)(F)F)c3c2N(CC24CC(C(=O)O)(C2)C4)CCC3)c1)c1ccc2c(c1)OC(F)(F)O2 (stereo not drawn) [Example 10, 3-[[1-[3-[1-(2,2-difluoro-1,3-benzodioxol-5-yl)ethoxy]phenyl]-3-(trifluoromethyl)-5,6-dihydro-4H-pyrazolo[3,4-b]pyridine-7-yl]methyl]bicyclo[1.1.1]pentane-1-carboxylic acid]
RLUs: ΔF508-CFTR-HRP trafficking data normalized to the vehicle treated control (0.3% DMSO): B (RLU 3.5 μM-5.0 μM)
